Patent US11040028B2, “Penicinotam derivative, preparation method and use thereof” (OCEAN UNIVERSITY OF CHINA, priority 2017, dated 2021)

Legend:
Format in all cases: cell-based
[1] = tested on: human embryonic lung fibroblast IMR-90; assay: Anti-fibrosis activity test: inhibition of proliferation of human embryonic lung fibroblast IMR-90 (CCK-8)
Method in brief: (§1)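 After one day of adherence at 37° C in 5% CO2, cells (seeded at 2×10^4 cells/mL) received the compounds for two days in triplicate. Inhibition of proliferation was quantified with CCK-8 at 450 nm, with IC50 calculated from IR = (1−Ai/Ao)×100%.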

[2] = tested on: BHK-21 cells; assay: Anti-fibrosis activity test: inhibition of BHK-21 cell proliferation (CCK-8); conditions: Mesocricetus auratus, BHK-21, 48 h
Method in brief: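 Proliferation inhibition was read as CCK-8 absorbance at 450 nm (2-hour development) relative to untreated blank, with IC50 fitted from the curve. Before that, adhered cells (2×10^4 cells/mL, 24 hours) had 48 hours' treatment at several concentrations, in triplicate, at 37° C/5% CO2; pirfenidone was the reference.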

[3] = tested on: human fibrosarcoma cells HT-1080; assay: Anti-fibrosis activity test: inhibition of proliferation of human fibrosarcoma cells HT-1080 (CCK-8); conditions: Homo sapiens, HT-1080, 48 h
Method in brief: as §1

[4] = tested on: NF-κB; assay: Immunological activity test: inhibition of NF-κB activity; conditions: initial concentration of 30 μM; a/b isomers given as first/second symbol; read-out: IC50 (μM), inhibitory activity against NF-κB
Method in brief: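 Each compound is tested at 30 μM for its ability to suppress NF-κB signalling. Parthenolide runs alongside as the positive control, and the data are then analysed to give IC50 values.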

[5] = tested on: human hepatic stellate cells LX-2; assay: Anti-fibrosis activity test: inhibition of proliferation of human hepatic stellate cells LX-2 (CCK-8); conditions: Homo sapiens, 48 h
Method in brief: as §1

[6] = tested on: mouse macrophages (RAW264.7); assay: Lipopolysaccharide-induced NO secretion in macrophages (Griess); conditions: Mus musculus, RAW264.7, 24 h, RAW264.7, LPS 1 μg/ml, a/b isomers given as first/second symbol, read-out: IC50 (μM), inhibition of lipopolysaccharide-induced NO secretion in macrophages
Method in brief: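 LPS 1 μg/ml, 24 h, RAW264.7 (DMEM/10% FBS); cpds at varied concs. Supernatant NO by Griess, A548; % inhibition vs blank medium.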

[7] = tested on: cardiac fibroblast RAT-iCell-C002; assay: Anti-fibrosis activity test: inhibition of proliferation of cardiac fibroblast RAT-iCell-C002 (CCK-8); conditions: Cardiac fibroblast, 48 h
Method in brief: as §1

[8] = tested on: human dermal fibroblasts CCC-ESF-1; assay: Anti-fibrosis activity test: inhibition of proliferation of human dermal fibroblasts CCC-ESF-1 (CCK-8); conditions: Fibroblast
Method in brief: as §1

[9] = tested on: human lung fibroblasts HFL1; assay: Anti-fibrosis activity test: inhibition of proliferation of human lung fibroblasts HFL1 (CCK-8); conditions: Homo sapiens, HFL1, 48 h
Method in brief: as §1

[10] = human embryonic lung fibroblast IMR-90, CCK-8, 48 hours
[11] = CCK-8, 48 hours after administration
[12] = human fibrosarcoma cells HT-1080, CCK-8, 48 hours
[13] = human hepatic stellate cells LX-2, CCK-8, 48 hours
[14] = cardiac fibroblast RAT-iCell-C002, CCK-8, 48 hours
[15] = human dermal fibroblasts CCC-ESF-1, CCK-8, 48 hours
[16] = human lung fibroblasts HFL1, CCK-8, 48 hours
[17] = Homo sapiens, IMR-90 cells, 48 h, CCK-8
[18] = Homo sapiens, CCC-ESF-1 cells, 48 h, CCK-8

| Structure (SMILES) | IC50 [3, 12] [mM] | IC50 [4] [µM] | IC50 [6] [µM] | IC50 ([3]; HT-1080 cells, 48 h, CCK-8) [mM] | IC50 [1, 10] [mM] | IC50 [2, 11] [mM] | IC50 [5, 13] [mM] | IC50 [7, 14] [mM] | IC50 [8, 15] [mM] | IC50 [9, 16] [mM] | IC50 [1, 17] [mM] | IC50 ([2]; 48 h, CCK-8) [mM] | IC50 ([5]; LX-2, 48 h, LX-2 cells, CCK-8) [mM] | IC50 ([7]; RAT-iCell-C002 cells, CCK-8) [mM] | IC50 [8, 18] [mM] | IC50 ([9]; HFL1 cells, 48 h, CCK-8) [mM] |
| --- | --- | --- | --- | --- | --- | --- | --- | --- | --- | --- | --- | --- | --- | --- | --- | --- |
| O=C(O)Cn1c2c(c(=O)c3cc(C(F)(F)F)ccc31)C(=O)n1cccc1-2 [Compound 279a, 2-(9,10-dioxo-7-(trifluoromethyl)-9H-pyrrolizino[1,2-b]quinolin-4(10H)-yl)acetic acid] | 0.05 to 5 | 1 to 10 | 1 to 10 | – | 0.05 to 5 | 0.05 to 5 | 0.05 to 5 | 0.05 to 5 | 0.05 to 5 | 0.05 to 5 | – | – | – | – | – | – |
| O=C1c2c(nc3cc(OC(F)(F)F)ccc3c2O)-c2cccn21 [Compound 548b, 9-hydroxy-6-trifluoromethoxy-10H-pyrrolizino[1,2-b]quinolin-10-one] | 0.05 to 5 | 1 to 10 | 1 to 10 | – | 0.05 to 5 | 0.05 to 5 | 0.05 to 5 | 0.05 to 5 | 0.05 to 5 | 0.05 to 5 | – | – | – | – | – | – |
| Cc1ccc2n1C(=O)c1[nH]c3ccccc3c(=O)c1-2 [Compound 799a, 3-Methyl-5H-pyrrolizino[2,1-b]quinoline-5,11(6H)-dione] | – | 1 to 10 | 1 to 10 | < 0.05 | – | – | – | – | – | – | 0.05 to 5 | 0.05 to 5 | 0.05 to 5 | 0.05 to 5 | 0.05 to 5 | 0.05 to 5 |
| C=CCOc1c2c(nc3ccccc13)-c1cccn1C2=O [Compound 6b, 9-(allyloxy)-10H-pyrrolizino[1,2-b]quinolin-10-one] | 0.05 to 5 | 1 to 10 | 1 to 10 | – | 0.05 to 5 | 0.05 to 5 | 0.05 to 5 | 0.05 to 5 | 5 to 20 | 0.05 to 5 | – | – | – | – | – | – |
| COc1cccc(COc2c3c(nc4ccccc24)-c2cccn2C3=O)c1 [Compound 610b, 9-((3-methoxybenzyl)oxy)-10H-pyrrolizino[1,2-b]quinolin-10-one] | 0.05 to 5 | 1 to 10 | 1 to 10 | – | 0.05 to 5 | 0.05 to 5 | 0.05 to 5 | 0.05 to 5 | 0.05 to 5 | 0.05 to 5 | – | – | – | – | – | – |
| O=C1c2c(nc3c(C(F)(F)F)cccc3c2O)-c2cccn21 [Compound 448b, 9-hydroxy-5-(trifluoromethyl)-10H-pyrrolizino[1,2-b]quinolin-10-one] | < 0.05 | 1 to 10 | 1 to 10 | – | 0.05 to 5 | 0.05 to 5 | 0.05 to 5 | 0.05 to 5 | 0.05 to 5 | 0.05 to 5 | – | – | – | – | – | – |
| O=C1c2c(nc3ccccc3c2OCc2cc(F)ccc2F)-c2cccn21 [Compound 573b, 9-((2,5-difluorobenzyl)oxy)-10H-pyrrolizino[1,2-b]quinolin-10-one] | 0.05 to 5 | 1 to 10 | 0.1 to 1 | – | 0.05 to 5 | 0.05 to 5 | 0.05 to 5 | < 0.05 | 0.05 to 5 | 0.05 to 5 | – | – | – | – | – | – |
| O=C(O)COc1c2c(nc3ccccc13)-c1cccn1C2=O [Compound 100b, 2-((10-oxo-10H-pyrrolizino[1,2-b]quinolin-9-yl)oxy)acetic acid] | 0.05 to 5 | 1 to 10 | 1 to 10 | – | 0.05 to 5 | 0.05 to 5 | 0.05 to 5 | 0.05 to 5 | 0.05 to 5 | 0.05 to 5 | – | – | – | – | – | – |
| Cc1ccc2[nH]c3c(c(=O)c2c1)C(=O)n1cccc1-3 [Compound 696a, 7-Methyl-9H-pyrrolizino[1,2-b]quinoline-9,10(4H)-dione] | – | 1 to 10 | 1 to 10 | 0.05 to 5 | – | – | – | – | – | – | 0.05 to 5 | 0.05 to 5 | 0.05 to 5 | 0.05 to 5 | 0.05 to 5 | 0.05 to 5 |

Now from value to compound, other results behind:

| IC50 [3, 12] [mM] | IC50 [4] [µM] | IC50 [6] [µM] | IC50 ([3]; HT-1080 cells, 48 h, CCK-8) [mM] | Structure (SMILES) | IC50 [1, 10] [mM] | IC50 [2, 11] [mM] | IC50 [5, 13] [mM] | IC50 [7, 14] [mM] | IC50 [8, 15] [mM] | IC50 [9, 16] [mM] | IC50 [1, 17] [mM] | IC50 ([2]; 48 h, CCK-8) [mM] | IC50 ([5]; LX-2, 48 h, LX-2 cells, CCK-8) [mM] | IC50 ([7]; RAT-iCell-C002 cells, CCK-8) [mM] | IC50 [8, 18] [mM] | IC50 ([9]; HFL1 cells, 48 h, CCK-8) [mM] |
| --- | --- | --- | --- | --- | --- | --- | --- | --- | --- | --- | --- | --- | --- | --- | --- | --- |
| 0.05 to 5 | 1 to 10 | 0.1 to 1 | – | Cc1cccc(Cn2c3c(c(=O)c4ccccc42)C(=O)n2cccc2-3)c1 [Compound 609a, 4-(3-Methylbenzyl)-9H-pyrrolizino[1,2-b]quinoline-9,10(4H)-dione] | 0.05 to 5 | 0.05 to 5 | 0.05 to 5 | 0.05 to 5 | 0.05 to 5 | 0.05 to 5 | – | – | – | – | – | – |
| 0.05 to 5 | 0.1 to 1 | 1 to 10 | – | CCOC(=O)/C=C/Cn1c2c(c(=O)c3ccccc31)C(=O)n1cccc1-2 [Compound 661a, Ethyl (E)-4-(9,10-dioxo-9H-pyrrolizino[1,2-b]quinolin-4(10H)-yl)but-2-enoate] | 0.05 to 5 | < 0.05 | 0.05 to 5 | 0.05 to 5 | 0.05 to 5 | 0.05 to 5 | – | – | – | – | – | – |
| – | 0.1 to 1 | 1 to 10 | 0.05 to 5 | O=C1c2c(n(CCCCN3CCNCC3)c3ccccc3c2=O)-c2cccn21 [Compound 670a, 4-(4-(Piperazin-1-yl)butyl)-9H-pyrrolizino[1,2-b]quinoline-9,10(4H)-dione] | – | – | – | – | – | – | < 0.05 | < 0.05 | 0.05 to 5 | 0.05 to 5 | 0.05 to 5 | 0.05 to 5 |
| – | 0.1 to 1 | 1 to 10 | 0.05 to 5 | O=C1c2c(n(CCCN3CCNCC3)c3ccccc3c2=O)-c2cccn21 [Compound 669a, 4-(3-(Piperazin-1-yl)propyl)-9H-pyrrolizino[1,2-b]quinoline-9,10(4H)-dione] | – | – | – | – | – | – | 0.05 to 5 | 0.05 to 5 | 0.05 to 5 | 0.05 to 5 | 0.05 to 5 | 0.05 to 5 |
| 0.05 to 5 | 0.1 to 1 | 1 to 10 | – | O=C1c2c(n(CCN3CCOCC3)c3ccccc3c2=O)-c2cccn21 [Compound 662a, 4-(2-Morpholinoethyl)-9H-pyrrolizino[1,2-b]quinoline-9,10(4H)-dione] | 0.05 to 5 | 0.05 to 5 | 0.05 to 5 | 0.05 to 5 | 0.05 to 5 | 0.05 to 5 | – | – | – | – | – | – |
| 0.05 to 5 | 1 to 10 | 1 to 10 | – | O=C1c2c(n(CCN3CCNCC3)c3ccccc3c2=O)-c2cccn21 [Compound 98a, 4-(2-(Piperazin-1-yl)ethyl)-9H-pyrrolizino[1,2-b]quinoline-9,10(4H)-dione] | < 0.05 | < 0.05 | < 0.05 | 0.05 to 5 | < 0.05 | 0.05 to 5 | – | – | – | – | – | – |
| 0.05 to 5 | 0.1 to 1 | 10 to 50 | – | O=C1c2c(n(Cc3c(F)cccc3F)c3ccccc3c2=O)-c2cccn21 [Compound 615a, 4-(2,6-Difluorobenzyl)-9H-pyrrolizino[1,2-b]quinoline-9,10(4H)-dione] | 0.05 to 5 | 0.05 to 5 | 0.05 to 5 | 0.05 to 5 | 0.05 to 5 | 0.05 to 5 | – | – | – | – | – | – |
| 0.05 to 5 | 0.1 to 1 | 0.1 to 1 | – | O=C1c2c([nH]c3cc(O)ccc3c2=O)-c2cccn21 [Compound 524a, 6-Hydroxy-9H-pyrrolizino[1,2-b]quinoline-9,10(4H)-dione] | 0.05 to 5 | 0.05 to 5 | 0.05 to 5 | 0.05 to 5 | 0.05 to 5 | 0.05 to 5 | – | – | – | – | – | – |
| – | 1 to 10 | 1 to 10 | 0.05 to 5 | CCOCCCn1c2c(c(=O)c3ccccc31)C(=O)n1cccc1-2 [Compound 672a, 4-(3-Ethoxypropyl)-9H-pyrrolizino[1,2-b]quinoline-9,10(4H)-dione] | – | – | – | – | – | – | 0.05 to 5 | 0.05 to 5 | 0.05 to 5 | 0.05 to 5 | 0.05 to 5 | 0.05 to 5 |
| – | 1 to 10 | 10 to 50 | 0.05 to 5 | O=C1c2c(c(=O)c3ccccc3n2CCCN2CCOCC2)-c2cccn21 [Compound 787a, 6-(3-Morpholinopropyl)-5H-pyrrolizino[2,1-b]quinoline-5,11(6H)-dione] | – | – | – | – | – | – | 0.05 to 5 | 0.05 to 5 | 0.05 to 5 | 0.05 to 5 | 0.05 to 5 | 0.05 to 5 |
